# Experimental data as given in US7635491B2, “Method for administering selenium for treating patients suffering from systemic inflammatory response syndrome (SIRS), and composition for implementing the treatment” (priority 1998, dated 2009).
# Test system: severe systemic inflammatory response syndrome (SIRS)
# Assay: Treatment of intensive-care patients with severe SIRS / septic shock by continuous administration of sodium selenite (case reports)
# Assay type: in vivo, human
# Procedure: A patient, 75 kg, chronic alcoholic with no history of icteroascitic, hemorrhagic or encephalopathic compensation, was admitted to postoperative intensive care with generalized purulent peritonitis from colonic perforation during an attack of diverticular sigmoiditis.
# His initial hemodynamics were maintained by perfusion. […] There was a moderate renal insufficiency. An adapted empirical antibiotic therapy was begun, and modified after 48 hours in view of the antiobiograms. At 24 hours severity indexes were IGS II 29, APACHE II 17 and SOFA score was 5. One day after the operation, the situation worsened rapidly with onset of a state of shock with lactic acidosis 5 μmol/l requiring administration of dopamine then rapidly noradrenaline up to 4 mg/h (0.9 μg/kg/min). There was a deterioration of respiratory state requiring increase of the FiO2 because of the onset of an acute adult respiratory distress syndrome (ARDS). As soon as the necessity of noradrenaline administration was recognized, a treatment with sodium selenite by continuous administration was begun at a dose of 4 mg of atomic selenium equivalent over the first 24 hours, followed by continuous administration of sodium selenite at a dose of 1 mg of atomic selenium equivalent for 10 days.
# A patient, depressive, anorexic, 51 kg and 1.75 m tall, was admitted on a tentative diagnosis of drug-induced suicide with ingestion of a large amount of analgesics and sedatives. The diagnosis was rapidly changed to generalized purulent peritonitis from a perforated gastric ulcer. They were transferred to postoperative intensive care. There was also a shock condition requiring perfusion and introduction of catechol amines as noradrenaline and dolbutamine; lactic acidosis at 6 μmol/l. Antibacterial and antifungal antibiotic therapy was performed. Diuresis was maintained under diuretics. One hour after the start of noradrenaline administration, a treatment with sodium selenite by continuous administration was begun at a dose of 4 mg of atomic selenium equivalent over the first 24 hours, followed by continuous administration of sodium selenite at a dose of 1 mg of atomic selenium equivalent for 10 days. At 24 hours the severity indexes were IGS II 44, APACHE II 35. The SOFA score was 8.
# A patient, presenting major alcohol-tobacco addiction (more than 1 liter of wine per day, 2 packets of cigarettes per day), chronic BPCO respiratory insufficiency, stage 2 arteritis of the lower limbs and deterioration in general health for several months with a productive cough, was transferred to intensive care after a short stay in general medicine. At admission there was a respiratory distress requiring emergency intubation-ventilation. Blood gases confirmed major respiratory acidosis. The patient was feverish. There was a hyperleucocytosis of 24 000 leucocytes of which 88% were polymorphonuclear cells. Blood pressure was stable under perfusion, however there were blotches on the knees. There were no coagulation problems nor renal insufficiency. At 24 hours IGS II was 41, APACHE II 26, and SOFA score 8. Lung samples taken by protected telescopic brush and brochoalveolar washing confirmed the diagnosis of community-acquired pneumonia: 47% of cells infected, Haemophilus influenza β-lactamase negative and wild-type streptococcal anginosis.
# The immediate development was marked by a rapid deterioration of respiratory state with necessity of ventilation at FiO2 100%, PEP 8. In addition, very substantial perfusion was necessary with measurement of pressure by right catheterization. Dopamine had to be administered at 10 μg/kg/min. After 8 hours dopamine administration, a treatment with sodium selenite by continuous administration was begun at a dose of 4 mg of atomic selenium equivalent over the first 24 hours, followed by continuous administration of sodium selenite at a dose of 1 mg of atomic selenium equivalent for 10 days. […]
smiles,measurement,setting,value
"O=[Se](O)O [sodium selenite, Sodium selenite [Na2O3Se]]","left intensive care, time after the operation",Example 1,10 days
same,platelet level,"Example 1, no disseminated intravascular coagulation",higher than 150 000 platelets/mm^3
same,"extubation, time after the operation",Example 2,20 days
same,platelet level,Example 2,50%
same,time to regression of the shock condition,"Example 2: patient, purulent peritonitis, shock, 4 mg atomic selenium equivalent over first 24 hours, then 1 mg for 10 days",24 h
same,"hyperlactatemia, maximum (then reduced as from the second day)",Example 3,10 µmol/L
same,"thrombopenia, platelets","Example 3, moderate CIVD",7500 platelets/mm^3
